# Source: patent US10287305B2, “Substituted piperidine compound and use thereof” (Takeda Pharmaceutical Company Limited, priority 2016, dated 2019)
# Target: human orexin type 2 receptor (hOX2R) (Homo sapiens (Human), UniProt O43614)
# Assay: Measurement of orexin type 2 receptor agonist activity (Experimental Example 2-1, FLIPR TETRA, intracellular Ca2+)
# Format: cell-based
# Conditions: CHO dhfr- cells expressing hOX2R; for Emax: read-out: Emax (%); for Emax at 30 µM: value at 30 uM concentration, orexin B as full agonist = 100%
# [1] = agonist activity, 10 nM human orexin B = 100%
# Sequence of human orexin type 2 receptor (hOX2R) (O43614 whole entry): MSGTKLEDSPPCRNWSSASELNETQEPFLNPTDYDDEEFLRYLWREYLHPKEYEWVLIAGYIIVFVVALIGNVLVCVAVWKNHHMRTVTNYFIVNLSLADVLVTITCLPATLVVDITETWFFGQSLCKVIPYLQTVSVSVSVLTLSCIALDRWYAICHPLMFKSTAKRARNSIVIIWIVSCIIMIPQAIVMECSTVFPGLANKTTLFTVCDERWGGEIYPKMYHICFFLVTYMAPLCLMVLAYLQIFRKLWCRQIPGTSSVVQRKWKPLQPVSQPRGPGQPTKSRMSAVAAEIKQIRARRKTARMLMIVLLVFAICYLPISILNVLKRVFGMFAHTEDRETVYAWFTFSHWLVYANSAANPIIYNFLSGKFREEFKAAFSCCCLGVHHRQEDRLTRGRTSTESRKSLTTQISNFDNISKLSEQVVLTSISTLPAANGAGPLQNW
Compound,"EC50 (FLIPR TETRA, Fluo-4AM)","Emax (FLIPR TETRA, Fluo-4AM)",EC50 [1],Emax at 30 µM
"CS(=O)(=O)N[C@H]1CCCN[C@H]1CO[C@H]1CC[C@@H](c2ccccc2F)CC1 [Example 260, N-((2R,3S)-2-(((cis-4-(2-fluorophenyl)cyclohexyl)oxy)methyl)piperidin-3-yl)methanesulfonamide]",0.55 µM,99%,–,–
"CS(=O)(=O)N[C@H]1CCCN(C(=O)CC2CC2)[C@H]1CO[C@H]1C[C@@H](c2ccccc2)C1 (relative stereo) [Example 308, N-(cis-1-(cyclopropylacetyl)-2-(((cis-3-phenylcyclobutyl)oxy)methyl)-piperidin-3-yl)methanesulfonamide]",0.59 µM,109%,–,–
"CC(=O)N(C)CC(=O)N1CCC[C@H](NS(C)(=O)=O)[C@@H]1CO[C@H]1CC[C@@H](c2ccccc2)CC1 (relative stereo) [Example 156, N-methyl-N-(2-(cis-3-((methylsulfonyl)amino)-2-(((cis-4-phenylcyclohexyl)oxy)methyl)piperidin-1-yl)-2-oxoethyl)acetamide]",0.35 µM,95%,–,–
"CC(C)[C@H]1CC[C@@H](OC[C@H]2[C@@H](NS(C)(=O)=O)CCCN2C(=O)CC(C)(C)O)CC1 (relative stereo) [Example 73, N-(cis-1-(3-hydroxy-3-methylbutanoyl)-2-(((cis-4-isopropylcyclohexyl)oxy)methyl)piperidin-3-yl)methanesulfonamide]",–,–,0.56 µM,92%
"COC(=O)N1CCC[C@H](NS(C)(=O)=O)[C@@H]1CO[C@H]1CC[C@@H](c2ccn(C)n2)CC1 (relative stereo) [Example 154, methyl cis-2-(((cis-4-(1-methyl-1H-pyrazol-3-yl)cyclohexyl)oxy)methyl)-3-((methylsulfonyl)amino)piperidine-1-carboxylate]",2.4 µM,94%,–,–
"CC(=O)N1CCC[C@H](NS(C)(=O)=O)[C@@H]1CO[C@H]1CC[C@@H](c2ccc(F)c(F)c2)CC1 (relative stereo) [Example 141, N-(cis-1-acetyl-2-(((cis-4-(3,4-difluorophenyl)cyclohexyl)oxy)methyl)piperidin-3-yl)methanesulfonamide]",0.46 µM,95%,–,–
"CC(=O)N1CCC[C@H](NS(C)(=O)=O)[C@@H]1CO[C@H]1CC[C@@H](C(C)(C)F)CC1 (relative stereo) [Example 95, N-(cis-1-acetyl-2-(((cis-4-(2-fluoropropan-2-yl)cyclohexyl)oxy)methyl)piperidin-3-yl)methanesulfonamide]",–,–,4.3 µM,89%
"CC(=O)N1CCC[C@H](NS(C)(=O)=O)[C@@H]1CO[C@H]1CC[C@@H](c2cccc(F)c2)CC1 [Example 147, N-((2R,3S)-1-acetyl-2-(((cis-4-(3-fluorophenyl)cyclohexyl)oxy)methyl)piperidin-3-yl)methanesulfonamide]",0.01 µM,100%,–,–
"CS(=O)(=O)N[C@H]1CCCN(C(=O)OCC(F)(F)F)[C@H]1COC1CCN(c2ncccn2)CC1 (relative stereo) [Example 286, 2,2,2-trifluoroethyl cis-3-((methylsulfonyl)amino)-2-(((1-(pyrimidin-2-yl)piperidin-4-yl)oxy)methyl)piperidine-1-carboxylate]",0.13 µM,93%,–,–
"CS(=O)(=O)N[C@H]1CCCN(C(=O)C2(O)CC2)[C@H]1CO[C@H]1CC[C@@H](c2ccccc2)CC1 (relative stereo) [Example 176, N-(cis-1-((1-hydroxycyclopropyl)carbonyl)-2-(((cis-4-phenylcyclohexyl)oxy)methyl)piperidin-3-yl)methanesulfonamide]",0.045 µM,98%,–,–
"CS(=O)(=O)N[C@H]1CCCN(C(=O)CO)[C@H]1CO[C@H]1CC[C@@H](c2ccccc2)CC1 [Example 185, N-((2R,3S)-1-glycoloyl-2-(((cis-4-phenylcyclohexyl)oxy)methyl)piperidin-3-yl)methanesulfonamide]",0.021 µM,98%,–,–
"CC(=O)N1CCC[C@H](NS(C)(=O)=O)[C@@H]1CO[C@H]1CC[C@@H](c2cc(F)ccc2F)CC1 (relative stereo) [Example 198, N-(cis-1-acetyl-2-(((cis-4-(2,5-difluorophenyl)cyclohexyl)oxy)methyl)piperidin-3-yl)methanesulfonamide]",0.056 µM,92%,–,–
"COC(=O)N1CCC[C@H](NS(=O)(=O)N(C)C)[C@@H]1CO[C@H]1CC[C@@H](c2ccccc2)CC1 [Example 309, methyl (2R,3S)-3-((dimethylsulfamoyl)amino)-2-(((cis-4-phenylcyclohexyl)oxy)methyl)-piperidine-1-carboxylate]",0.0031 µM,106%,–,–
"Cn1ccc([C@H]2CC[C@@H](OC[C@@H]3NCCC[C@@H]3NS(C)(=O)=O)CC2)n1 (relative stereo) [Example 143, N-(cis-2-(((cis-4-(1-methyl-1H-pyrazol-3-yl)cyclohexyl)oxy)methyl)piperidin-3-yl)methanesulfonamide]",–,96%,–,–
"COC(=O)N1CCC[C@H](NS(C)(=O)=O)[C@@H]1CO[C@H]1CC[C@@H](c2cc(F)cc(F)c2)CC1 [Example 241, methyl (2R,3S)-2-(((cis-4-(3,5-difluorophenyl)cyclohexyl)oxy)methyl)-3-((methylsulfonyl)amino)piperidine-1-carboxylate]",0.0012 µM,97%,–,–
"CCNC(=O)N1CCC[C@H](NS(C)(=O)=O)[C@@H]1CO[C@H]1CC[C@@H](c2ccc(F)c(F)c2)CC1 (relative stereo) [Example 144, cis-2-(((cis-4-(3,4-difluorophenyl)cyclohexyl)oxy)methyl)-N-ethyl-3-((methylsulfonyl)amino)piperidine-1-carboxamide]",0.001 µM,104%,–,–
"CC(C)[C@H]1CC[C@@H](OC[C@H]2[C@@H](NS(C)(=O)=O)CCCN2S(=O)(=O)c2cnn(C)c2)CC1 (relative stereo) [Example 67, N-(cis-2-(((cis-4-isopropylcyclohexyl)oxy)methyl)-1-((1-methyl-1H-pyrazol-4-yl)sulfonyl)piperidin-3-yl)methanesulfonamide]",–,–,–,93%
"CC(=O)N1CCC[C@H](NS(C)(=O)=O)[C@@H]1CO[C@H]1CC[C@@H](C(C)C)CC1 [Example 70, N-((2R,3S)-1-acetyl-2-(((cis-4-isopropylcyclohexyl)oxy)methyl)piperidin-3-yl)methanesulfonamide]",–,–,0.097 µM,98%
"CS(=O)(=O)N[C@H]1CCCN[C@H]1COC1CCC(F)(c2cc(F)cc(F)c2)CC1 (relative stereo) [Example 325, N-(cis-2-(((4-(3,5-difluorophenyl)-4-fluorocyclohexyl)oxy)methyl)-piperidin-3-yl)methanesulfonamide]",5 µM,75%,–,–
"CC(C)[C@H]1CC[C@@H](OC[C@H]2[C@@H](NS(C)(=O)=O)CCCN2S(=O)(=O)c2cccnc2)CC1 (relative stereo) [Example 66, N-(cis-2-(((cis-4-isopropylcyclohexyl)oxy)methyl)-1-(pyridin-3-ylsulfonyl)piperidin-3-yl)methanesulfonamide]",–,–,3.8 µM,87%
"CC(C)OC(=O)N1CCC[C@H](NS(=O)(=O)N(C)C)[C@@H]1COC1CCN(c2ncccn2)CC1 [Example 29, isopropyl (2R,3S)-3-((dimethylsulfamoyl)amino)-2-(((1-(pyrimidin-2-yl)piperidin-4-yl)oxy)methyl)piperidine-1-carboxylate]",–,–,0.017 µM,104%
"C[C@H](O)C(=O)N1CCC[C@H](NS(C)(=O)=O)[C@@H]1CO[C@H]1CC[C@@H](c2ccccc2)CC1 [Example 188, N-((2R,3S)-1-((2S)-2-hydroxypropanoyl)-2-(((cis-4-phenylcyclohexyl)oxy)methyl)piperidin-3-yl)methanesulfonamide]",0.023 µM,97%,–,–
"CC(=O)N1CCC[C@H](NS(C)(=O)=O)[C@@H]1CO[C@H]1CC[C@@H](c2ccccc2)CC1 [Example 4, N-((2R,3S)-1-acetyl-2-(((cis-4-phenylcyclohexyl)oxy)methyl)piperidin-3-yl)methanesulfonamide]",–,–,0.044 µM,106%
"CC(=O)CCC(=O)N1CCC[C@H](NS(C)(=O)=O)[C@@H]1CO[C@H]1CC[C@@H](C(C)C)CC1 (relative stereo) [Example 75, N-(cis-2-(((cis-4-isopropylcyclohexyl)oxy)methyl)-1-(4-oxopentanoyl)piperidin-3-yl)methanesulfonamide]",–,–,–,88%
"CC(C)OC(=O)N1CCC[C@H](NS(C)(=O)=O)[C@@H]1CO[C@@H]1CCN(c2ncccn2)[C@H](C)C1 (stereo in doubt) [Example 329, isopropyl cis-2-(((cis-2-methyl-1-(pyrimidin-2-yl)piperidin-4-yl)oxy)methyl)-3-((methylsulfonyl)amino)piperidine-1-carboxylate]",0.022 µM,93%,–,–
"CC(=O)N1CCC[C@H](NS(C)(=O)=O)[C@@H]1CO[C@H]1CC[C@@H](c2c(F)cccc2F)CC1 [Example 14, N-((2R,3S)-1-acetyl-2-(((cis-4-(2,6-difluorophenyl)cyclohexyl)oxy)methyl)piperidin-3-yl)methanesulfonamide]",–,–,0.0066 µM,105%
"CS(=O)(=O)N[C@H]1CCCN(C(=O)Cn2cccn2)[C@H]1CO[C@H]1CC[C@@H](c2ccccc2)CC1 (relative stereo) [Example 138, N-(cis-2-(((cis-4-phenylcyclohexyl)oxy)methyl)-1-(1H-pyrazol-1-ylacetyl)piperidin-3-yl)methanesulfonamide]",0.022 µM,94%,–,–
"CS(=O)(=O)N[C@H]1CCCN(C(=O)C2CCC2)[C@H]1COC1CCN(c2ccccc2F)CC1 (relative stereo) [Example 223, N-(cis-1-(cyclobutylcarbonyl)-2-(((1-(2-fluorophenyl)piperidin-4-yl)oxy)methyl)piperidin-3-yl)methanesulfonamide]",1.1 µM,110%,–,–
